Columns and labels:
[1] = tested on: human colon cancer HT-29 cells; experiment: CCK-8 cell viability assay, HT-29; type: cell-based; settings: HT-29, normoxic and hypoxic, 48 h, Figure 5
Procedure: (§1) The MDA-MB-231, HT-29 and MG-63 cell lines were provided by KeyGEN BioTECH Ltd (Nanjing, Jiangsu, China). The cells were digested and counted to prepare a cell suspension of 5.0 × 10^4 cells/mL, and then 100 μL of cell suspension was added to each well of the 96-well cell culture plate. The plates were placed in a 37 °C, 5% CO2 incubator (Corning Incorporated, Corning, New York, USA) for 24 h. The drug was diluted with the culture medium to the required concentration, ed100 μL of the corresponding drug-containing medium was added to each well, and a negative control group was set up at the same time. The 96-well cell culture plates were placed into a normoxic incubator (37 °C, 5% CO2) and hypoxic incubator (37 °C, 5% CO2, 0.5% O2, 94.5% N2) for 48 h. Finally, the 96-well plate was stained with CCK-8 and the OD value determined (λ = 450 nm).

[2] = tested on: breast adenocarcinoma MDA-MB-231 cells; experiment: CCK-8 cell viability assay, MDA-MB-231; type: cell-based, human; settings: MDA-MB-231, normoxic and hypoxic, 48 h, Figure 5
Procedure: as §1

human osteosarcoma MG-63 = experiment: CCK-8 cell viability assay, MG-63; type: cell-based; settings: hypoxic conditions
Procedure: Then, considering the high inhibitory activity of 14a on the two isoforms of CA IX and XII, we evaluated the inhibitory activity of 14a on human osteosarcoma MG-63 featuring high expression of CA IX and XII.
as §1

hCA II = hCA II (Homo sapiens, UniProt P00918); experiment: hCA II enzyme inhibition assay (4-NPA hydrolysis)
Procedure: (§4) Carbonic anhydrase can catalyze the hydrolysis of 4-nitrophenyl acetate (4-NPA). […] The experimental buffer consisted of 15 mmol/L 4-(2-hydroxyethyl)-1-piperazineethanesulfonic acid (HEPES) (pH = 7.40), 0.01% tetraethylene glycol monododecyl ether (Brij), and 100 mmol/L NaCl. […] Then, 18 μL of enzyme solution was transferred into 384-well plates in duplicate. Stock solutions of the inhibitors (10.0 mmol/L) were prepared using DMSO as solvent, and then diluted 1:3 with DMSO. […] Then 2.00 μL of each inhibitor was added to each well. All compounds were allowed to incubate with the enzyme for 15 min at 25 °C to form the Enzyme-Inhibitor (E-I) complex. After that, substrate 4-NPA (1.00 mmol/L, 20.00 μL, Sigma-Aldrich, St. Louis, MI, USA) was added into the E-I complex solution and incubated for 60, 90, 90 min at 25 °C, respectively.

hCA IX = hCA IX (Homo sapiens, UniProt Q16790); experiment: hCA IX enzyme inhibition assay (4-NPA hydrolysis)
Procedure: as §4

hCA XII = hCA XII (Homo sapiens, UniProt O43570); experiment: hCA XII enzyme inhibition assay (4-NPA hydrolysis)
Chain of hCA XII (O43570 25-354): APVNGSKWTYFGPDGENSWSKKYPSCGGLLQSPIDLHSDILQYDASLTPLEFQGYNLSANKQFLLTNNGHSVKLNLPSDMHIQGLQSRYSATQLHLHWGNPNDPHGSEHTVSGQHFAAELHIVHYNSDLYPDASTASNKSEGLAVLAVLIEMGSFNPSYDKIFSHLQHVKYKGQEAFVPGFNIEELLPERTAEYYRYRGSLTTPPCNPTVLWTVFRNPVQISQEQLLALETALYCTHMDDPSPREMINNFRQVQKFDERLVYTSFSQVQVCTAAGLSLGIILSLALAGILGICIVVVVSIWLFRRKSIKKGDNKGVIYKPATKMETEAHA
Procedure: as §4

MDA-MB-231 = experiment: Extracellular pH measurement, MDA-MB-231; type: cell-based, human; settings: MDA-MB-231, 0.1 and 1 mM, normoxic and hypoxic, Figure 7
Procedure: (§2) The high expression of CA IX plays an important role in the maintenance of the tumor cell microenvironment, and inhibiting its activity might have a potential impact on the pH of the tumor microenvironment. To evaluate the effect of compounds on the pH of the microenvironment, the pH values under normoxic and hypoxic conditions were determined in the presence of compounds 14b, 14h, and 14p. […] In addition, this improvement in pH was dose-dependent.
(§3) The measurement of the change of extracellular pH referred to the reported literature. In brief, cancer cells were incubated for 12 h. After removing the medium, fresh medium was added to the plates and then incubated for 48 h under hypoxia or normoxia. The pH of the medium was measured immediately. The tested compounds were dissolved in DMSO and diluted with culture medium to the desired concentration. After the addition of tested compounds, the same procedure was repeated.

HT-29 = experiment: Extracellular pH measurement, HT-29; type: cell-based, human; settings: HT-29, 0.1 and 1 mM, normoxic and hypoxic, Figure 7
Procedure: as §2, §3

SMILES	inhibitory activity on cell viability compared with AZM [1]	inhibitory activity on cell viability compared with AZM [2]	effect on MG-63 viability compared with AZM (human osteosarcoma MG-63)	reduction of viability of MG-63 cells (human osteosarcoma MG-63; 800 μM, 48 h)	IC50 (hCA II)	IC50 (hCA IX)	IC50 (hCA XII)	effect on extracellular (tumor) pH (MDA-MB-231)	effect on extracellular (tumor) pH (HT-29)
NS(=O)(=O)c1nnc(NC(=O)c2ccc(NC(=O)CCCC(=O)N[C@@H]3O[C@H](CO)[C@@H](O)[C@H](O)[C@H]3O)cc2)s1 [Compound 14a, N^1-(4-((5-Sulfamoyl-1,3,4-thiadiazol-2-yl)carbamoyl)phenyl)-N^5-((2R,3R,4S,5S,6R)-3,4,5-trihydroxy-6-(hydroxymethyl)tetrahydro-2H-pyran-2-yl)glutaramide]	better than those of the positive control drug AZM	better than those of the positive control drug AZM	significantly better than that of the positive control AZM	approximately 30%	141 ± 12.9 nM	29 ± 4.2 nM	141 ± 5.5 nM		
NS(=O)(=O)c1nnc(NC(=O)c2cccc(NC(=O)CCCC(=O)N[C@@H]3O[C@H](CO)[C@@H](O)[C@H](O)[C@H]3O)c2)s1 [Compound 14b, N^1-(3-((5-Sulfamoyl-1,3,4-thiadiazol-2-yl)carbamoyl)phenyl)-N^5-((2R,3R,4S,5S,6R)-3,4,5-trihydroxy-6-(hydroxymethyl)tetrahydro-2H-pyran-2-yl)glutaramide]	better than those of the positive control drug AZM	better than those of the positive control drug AZM			80.3 ± 11.5 nM	29 ± 1.5 nM	56 ± 8.5 nM	increased tumor pH to varying degrees	increased tumor pH to varying degrees
COc1cc(C(=O)Nc2nnc(S(N)(=O)=O)s2)ccc1NC(=O)CCCC(=O)N[C@@H]1O[C@H](CO)[C@@H](O)[C@H](O)[C@H]1O [Compound 14h, N^1-(2-Methoxy-4-((5-sulfamoyl-1,3,4-thiadiazol-2-yl)carbamoyl)phenyl)-N^5-((2R,3R,4S,5S,6R)-3,4,5-trihydroxy-6-(hydroxymethyl)tetrahydro-2H-pyran-2-yl)glutaramide]	better than those of the positive control drug AZM	better than those of the positive control drug AZM			272 ± 9 nM	68.8 ± 10.2 nM	84.9 ± 7.6 nM	increased tumor pH to varying degrees	increased tumor pH to varying degrees
COc1cc(C(=O)Nc2nnc(S(N)(=O)=O)s2)ccc1NC(=O)CCC(=O)N[C@@H]1O[C@H](CO)[C@@H](O)[C@H](O)[C@H]1O [Compound 14p, N^1-(2-Methoxy-4-((5-sulfamoyl-1,3,4-thiadiazol-2-yl)carbamoyl)phenyl)-N^4-((2R,3R,4S,5S,6R)-3,4,5-trihydroxy-6-(hydroxymethyl)tetrahydro-2H-pyran-2-yl)succinimide]	better than those of the positive control drug AZM	better than those of the positive control drug AZM			332 ± 16.8 nM	47.9 ± 7.1 nM	42.3 ± 9.4 nM	increased tumor pH to varying degrees	increased tumor pH to varying degrees
